# According to article PMC5967881 (Journal of medicinal chemistry, 2017):
# Values joined by “and” are separate entries in the source; they are usually repeats but may differ in a detail not shown here. Equal values may be shown once.
# Target: AM2-S31N proton channel (Influenza A virus, UniProt P0DOF5, S31N)
# Assay: not given
# Assay type: biochemical
# Details: pH 5.5, 100 µM
row,Molecule,Electrophysiological TEVC assay (% S31N channel inhibition) [%]
1,N-((5-(2-(methylsulfonyl)phenyl)isoxazol-3-yl)methyl)adamantan-1-amine [9m],47.4 ± 0.5

# Same assay, conditions: pH 5.5, 100 µM; 100 µM
row,Molecule,Electrophysiological TEVC assay (% S31N channel inhibition)
1,"3-({[5-(3-methoxythiophen-2-yl)-1,2-oxazol-3-yl]methyl}amino)adamantan-1-ol [9s]",83.8 ± 3.3%
2,"c1ccc(-c2cc(CNC34CC5CC(CC(C5)C3)C4)no2)cc1 [9a, N-[(5-phenyl-1,2-oxazol-3-yl)methyl]adamantan-1-amine]",91.2 ± 1.5%
3,"OC12CC3CC(C1)CC(NCc1cc(-c4ccccc4Cl)on1)(C3)C2 [9d, 3-({[5-(2-chlorophenyl)-1,2-oxazol-3-yl]methyl}amino)adamantan-1-ol]",> 70%
4,"CSc1ccccc1-c1cc(CNC23CC4CC(CC(O)(C4)C2)C3)no1 [9f, 3-[({5-[2-(methylsulfanyl)phenyl]-1,2-oxazol-3-yl}methyl)amino]adamantan-1-ol]",> 70% and > 90%
5,"Oc1ccccc1-c1cc(CNC23CC4CC(CC(C4)C2)C3)no1 [9h, 2-(3-(((adamantan-1-yl)amino)methyl)isoxazol-5-yl)phenol]",> 70%
6,"Clc1ccc(-c2cc(CNC34CC5CC(CC(C5)C3)C4)no2)s1 [9q, N-((5-(5-chlorothiophen-2-yl)isoxazol-3-yl)methyl)adamantan-1-amine]",> 70%
7,"Clc1cc(-c2cc(CNC34CC5CC(CC(C5)C3)C4)no2)cs1 [9r, N-((5-(5-chlorothiophen-3-yl)isoxazol-3-yl)methyl)adamantan-1-amine]",> 70%
8,"COc1sccc1-c1cc(CNC23CC4CC(CC(C4)C2)C3)no1 [9t, N-((5-(2-methoxythiophen-3-yl)isoxazol-3-yl)methyl)adamantan-1-amine]",> 70%
9,"Clc1cc(-c2cc(CNC34CC5CC(CC(C5)C3)C4)no2)c(Cl)s1 [9u, N-((5-(2,5-dichlorothiophen-3-yl)isoxazol-3-yl)methyl)adamantan-1-amine]",> 70%
10,"OC12CC3CC(C1)CC(NCc1cc(-c4cc(Cl)sc4Cl)on1)(C3)C2 [9v, 3-({[5-(2,5-dichlorothiophen-3-yl)-1,2-oxazol-3-yl]methyl}amino)adamantan-1-ol]",> 70%

# Tested on: A/Denmark/528/2009 (H1N1)
# Assay: microbe, parasite or virus in culture
# Assay type: cell-based
# Details: Influenza A virus, H1N1, read-out: EC50 against A/Denmark/528/2009 (H1N1)
row,Molecule,EC50 [nM]
1,"Clc1ccc(-c2cc(CNC34CC5CC(CC(C5)C3)C4)no2)s1 [9q, N-((5-(5-chlorothiophen-2-yl)isoxazol-3-yl)methyl)adamantan-1-amine]",100 to 200

# Tested on: A/Washington/29/2009 (H1N1)
# Assay: microbe, parasite or virus in culture
# Assay type: cell-based
# Details: Influenza A virus, H1N1, read-out: EC50 against A/Washington/29/2009 (H1N1)
row,Molecule,EC50 [nM]
1,"Clc1ccc(-c2cc(CNC34CC5CC(CC(C5)C3)C4)no2)s1 [9q, N-((5-(5-chlorothiophen-2-yl)isoxazol-3-yl)methyl)adamantan-1-amine]",100 to 200
